Legend:
[1] = Solubility of precursor in DMSO; assay type: physicochemical; conditions: no sonication or heating required
From the text: The solubility of the precursor compound affects the ability of the compound to get into solution so that a reaction to produce [^18F]T807 can effectively occur.

[2] = tested on: native tau aggregates; test: Film autoradiography of AD brain tissue sections; assay type: binding, human
Experimental: Film autoradiography of AD Brain Tissue Sections are performed in a manner consistent with previously published methods (See Zhang, W., et al. F-18 stilbenes as PET imaging agents for detecting beta-amyloid plaques in the brain. Journal of Medicinal Chemistry, 48: 5980-5988, 2005, Zhang, W., et al. F-18 stilbenes as PET imaging agents for amyloid plaque imaging. Nucl Med Biol. 2007 34(1):89-97.)
Postmortem AD diagnosed human brain sections (frontal lobe, 10 um) are covered with 0.5 ml of [^18F]T807 (in 2.5:2.5:95=DMSO:ethanol:1X-phospate buffered saline (PBS), about 20 uCi of [^18F]T807 per slide, and incubated for 60 minutes at room temperature. Then successive washing cycles are employed with 2 minutes of 1× PBS, 2 minutes of 30% ethanol/1× PBS, 2 minutes of 70% ethanol/1× PBS, and 2 minutes 1× PBS, to remove any unbound tracer. After drying under a fume hood, the sections are put on a FujiFilm radio-sensor cassette and exposed over night. The autoradiography signal is recorded in the radio-sensor sheet and is read/visualized with the FujiFilm Bio-Imaging System FLA-7000. Autoradiographic visualization of tau is observed in gray matter of postmortem AD brain tissue. See FIG. 2 which illustrates [^18F]T807 labeling of tau in post-mortem frontal lobe sections (10 um) of tau-positive human brain tissue from patients with AD, approximately 20 uCi of [^18F]T807 per slide. Strong autoradiography signal of [^18F]T807 is observed on the grey matter (GM) region, and the presence of tau in these regions are confirmed by tau-immunostaining. The non-specific or background [^18F]T807 signal is shown in the white matter region (WM) and is low.

[3] = tested on: PHF-tau; conditions: cited from Alzheimer's & Dementia 2013; cited from earlier work

CC(C)(C)OC(=O)n1c2ccncc2c2ccc(-c3ccc([N+](C)(C)C)nc3)cc21.Cc1ccc(S(=O)(=O)[O-])cc1 [formula Ia, 5-(5-(tert-butoxycarbonyl)-5H-pyrido[4,3-b]indol-7-yl)-N,N,N-trimethylpyridin-2-aminium 4-methylbenzenesulfonate]
solubility in DMSO [1]: readily soluble

[18F]c1ccc(-c2ccc3c(c2)[nH]c2ccncc23)cn1 [[^18F]T807, 7-(6-[^18F]fluoro-3-pyridyl)-5H-pyrido[4,3-b]indole]
non-specific or background signal in the white matter region (WM) ([2]; post-mortem frontal lobe sections (10 um) of tau-positive human AD brain, about 20 uCi per slide): low
autoradiography signal on the grey matter (GM) region ([2]; post-mortem frontal lobe sections (10 um) of tau-positive human AD brain, about 20 uCi per slide, 60 minutes at room temperature): Strong
affinity and selectivity to PHF-tau [3]: high

Fc1ccc(-c2ccc3c(c2)[nH]c2ccncc23)cn1 [Example T807, 7-(6-fluoro-3-pyridyl)-5H-pyrido[4,3-b]indole, reference compound]
blocking of the [18F]T807 autoradiography signal (specificity for native tau aggregates) ([2]; 1 uM of cold T807, human AD brain sections): blocking effect

From patent publication US20160228586A1, “Compounds and Their Use for Preparation of Tau Imaging Agents and Tau Imaging Formulations” (ELI LILLY AND COMPANY, priority 2013, published 2016)
